In patent US8648066B2 (Exelixis, Inc., priority 2009, dated 2014):

Molecular target: mTOR/GbL/Raptor (mTORC1) (Homo sapiens, UniProt P42345)
Test: mTOR/GbL/Raptor (mTORC1) ELISA assay
Format: biochemical
Details: phosphorylation of 4E-BP1; 0.2 nM mTORC1, 10 μM ATP; read-out: IC50 in this assay (mTORC1 ELISA)
Procedure: The measurement of mTORC1 enzyme activity was performed in an ELISA assay format following the phosphorylation of 4E-BP1 protein. All experiments were performed in the 384-well format. Generally, 0.5 μL DMSO containing varying concentrations of the test Compound was mixed with 15 μL enzyme solution. Kinase reactions were initiated with the addition of 15 μL of substrates-containing solution. The assay conditions were as follows; 0.2 nM mTORC1, 10 μM ATP and 50 nM NHis-tagged 4E-BP1 in 20 mM Hepes, pH 7.2, 1 mM DTT, 50 mM NaCl, 10 mM MnCl2, 0.02 mg/mL BSA, 0.01% CHAPS, 50 mM β-glycerophosphate. Following an incubation of 120 minutes at ambient temperature, 20 μL of the reaction volume was transferred to a Ni-Chelate-coated 384-well plate. The binding step of the 4E-BP1 protein proceeded for 60 minutes, followed by washing 4 times each with 50 μL of Tris-buffered saline solution (TBS). Anti-phospho-4E-BP1 rabbit-IgG (20 μL, 1:5000) in 5% BSA-TBST (0.2% Tween-20 in TBS) was added and further incubated for 60 minutes. Incubation with a secondary HRP-tagged anti-IgG was similarly performed after washing off the primary antibody (4 washes of 50 μL). Following the final wash step with TBST, 20 μL of SuperSignal ELISA Femto (Pierce Biotechnology) was added and the luminescence measured using an EnVision plate reader.

SMILES | IC50 [nM]
Cc1nc2cc(-c3ccc4c(c3)CN(c3nc([C@H]5CCCN5)nc5c3CC(C)(C)CC5)CCO4)ccc2[nH]1 [Example 505, 4-{6,6-dimethyl-2-[(2R)-pyrrolidin-2-yl]-5,6,7,8-tetrahydroquinazolin-4-yl}-7-(2-methyl-1H-benzimidazol-5-yl)-2,3,4,5-tetrahydro-1,4-benzoxazepine] | 10 to 50
Cc1nc2cc(-c3ccc4c(c3)CN(c3nc(CF)nc5c3CC(C)(C)CC5)CCO4)ccc2[nH]1 [Example 676, 4-[2-(fluoromethyl)-6,6-dimethyl-5,6,7,8-tetrahydroquinazolin-4-yl]-7-(2-methyl-1H-benzimidazol-5-yl)-2,3,4,5-tetrahydro-1,4-benzoxazepine] | ≤ 10
COCCc1c(C)nc(CN(C)C)nc1N1CCOc2ccc(-c3ccc4nc(C)[nH]c4c3)cc2C1 [Example 664, N,N-dimethyl-1-{4-methyl-6-[7-(2-methyl-1H-benzimidazol-6-yl)-2,3-dihydro-1,4-benzoxazepin-4(5H)-yl]-5-[2-(methyloxy)ethyl]pyrimidin-2-yl}methanamine] | 250 to 1000
CC1(C)CCc2ncnc(N3CCOc4ccc(-c5cnc(N)c(S(=O)(=O)N6C[C@H]7C[C@@H]6CN7)c5)cc4C3)c2C1 [Example 435, 2-[(1R,4R)-2,5-diazabicyclo[2.2.1]hept-2-ylsulfonyl]-5-[4-(6,6-dimethyl-5,6,7,8-tetrahydroquinazolin-4-yl)-2,3,4,5-tetrahydro-1,4-benzoxazepin-7-yl]pyridin-2-amine] | 10 to 50
Cc1nc(Nc2ccccc2)c(C)c(N2CCOc3ccc(-c4cnc5nc[nH]c5c4)cc3C2)n1 [Example 530] | 10 to 50
Cc1nc2ccc(-c3ccc4c(c3)CN(c3ncnc5c3CC(C)C5)CCO4)cc2[nH]1 (centres unmarked) [Example 76, 7-(2-methyl-1H-benzimidazol-6-yl)-4-(6-methyl-6,7-dihydro-5H-cyclopenta[d]pyrimidin-4-yl)-2,3,4,5-tetrahydro-1,4-benzoxazepine] | 50 to 250
Cc1nc(CN(C)C)nc(N2CCOc3ccc(-c4cnc5sc(N)nc5c4)cc3C2)c1CC1CC1 [Example 663, 6-(4-{5-(cyclopropylmethyl)-2-[(dimethylamino)methyl]-6-methylpyrimidin-4-yl}-2,3,4,5-tetrahydro-1,4-benzoxazepin-7-yl)[1,3]thiazolo[5,4-b]pyridin-2-amine] | 50 to 250
COc1ccc2c(N3CCOc4ccc(-c5ccc6nc(C)[nH]c6c5)cc4C3)ncnc2c1OC [Example 34, 4-[7,8-bis(methyloxy)quinazolin-4-yl]-7-(2-methyl-1H-benzimidazol-6-yl)-2,3,4,5-tetrahydro-1,4-benzoxazepine] | 50 to 250
CC1(C)CCc2ncnc(N3CCOc4ccc(-c5cnc(N)c(S(=O)(=O)NCCN)c5)cc4C3)c2C1 [Example 409, 2-amino-N-(2-aminoethyl)-5-[4-(6,6-dimethyl-5,6,7,8-tetrahydroquinazolin-4-yl)-2,3,4,5-tetrahydro-1,4-benzoxazepin-7-yl]pyridine-3-sulfonamide] | ≤ 10
Cc1nc2ccc(-c3ccc4c(c3)CN(c3ncnc(C)c3Cc3ccc(Cl)c(N(C)C)c3)CCO4)cc2[nH]1 [Example 93, 2-chloro-N,N-dimethyl-5-({4-methyl-6-[7-(2-methyl-1H-benzimidazol-6-yl)-2,3-dihydro-1,4-benzoxazepin-4(5H)-yl]pyrimidin-5-yl}methyl)aniline] | ≤ 10
Cc1nc2cc(-c3ccc4c(c3)CN(c3nc(CN5CCCC5)nc5c3CC(C)(C)CC5)CCO4)cnc2[nH]1 [Example 501, 4-[6,6-dimethyl-2-(pyrrolidin-1-ylmethyl)-5,6,7,8-tetrahydroquinazolin-4-yl]-7-(2-methyl-3H-imidazo[4,5-b]pyridin-6-yl)-2,3,4,5-tetrahydro-1,4-benzoxazepine] | ≤ 10
